Laboratory results published in ChEMBL document CHEMBL1201862, “PubChem BioAssay data set” (2004).
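Tested at 5 concentrations; 48 h exposure; 96-well plates; endpoints linearly interpolated, else capped at highest concentration. GI50 is the concentration that inhibits growth by half.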 Calls of active or inactive are those of the source. No stated cut-off is given here; in the data, active = GI50 up to about 1.1 µM and inactive = higher.

Tests used:
Experiment in all cases: DTP human tumour cell line panel, 48 h
T47D = test system: T47D
A498 = test system: A498
NCI-H23 = test system: NCI-H23
MCF7 = test system: MCF7
U-251 = test system: U-251
HOP-92 = test system: HOP-92
786-0 = test system: 786-0
COLO 205 = test system: COLO 205
HL-60 = test system: HL-60
SK-MEL-2 = test system: SK-MEL-2
SF-268 = test system: SF-268
MDA-N = test system: MDA-N
MDA-MB-231 = test system: MDA-MB-231
OVCAR-8 = test system: OVCAR-8
KM12 = test system: KM12
LOX IMVI = test system: LOX IMVI
SF-539 = test system: SF-539
HCT-116 = test system: HCT-116
NCI/ADR-RES = test system: NCI/ADR-RES

Measured: GI50

O=c1oc2ccccc2cc1-c1ccc([N+](=O)[O-])cc1
inactive: T47D > 100 µM | A498 85.5 µM | NCI-H23 > 100 µM | MCF7 > 100 µM | U-251 9.53 µM | HOP-92 > 100 µM | 786-0 9.29 µM | COLO 205 > 100 µM | HL-60 > 100 µM | SK-MEL-2 > 100 µM | SF-268 24.8 µM | MDA-N > 100 µM | MDA-MB-231 > 100 µM | OVCAR-8 54 µM | KM12 > 100 µM | LOX IMVI > 100 µM | SF-539 17.9 µM | HCT-116 36.7 µM | NCI/ADR-RES > 100 µM

N#CC1(C#N)NC(c2ccccc2)C(C#N)(C#N)NC1c1ccccc1 (stereo not drawn)
inactive: T47D > 100 µM | A498 > 100 µM | NCI-H23 > 100 µM | MCF7 > 100 µM | U-251 > 100 µM | HOP-92 86.7 µM | 786-0 > 100 µM | COLO 205 > 100 µM | HL-60 41.1 µM | SK-MEL-2 > 100 µM | SF-268 > 100 µM | MDA-N > 100 µM | MDA-MB-231 25.9 µM | OVCAR-8 > 100 µM | KM12 > 100 µM | LOX IMVI > 100 µM | SF-539 > 100 µM | HCT-116 > 100 µM | NCI/ADR-RES > 100 µM

O=C(c1cccs1)N1CCN(C(=O)c2cccs2)C1=S
inactive: T47D 4.15 µM | A498 15.1 µM | NCI-H23 12.7 µM | MCF7 3.18 µM | U-251 5.92 µM | HOP-92 7.19 µM | 786-0 2.75 µM | COLO 205 7.35 µM | HL-60 2.23 µM | SK-MEL-2 11.9 µM | SF-268 5.28 µM | MDA-N 3.69 µM | MDA-MB-231 6.38 µM | OVCAR-8 5.32 µM | KM12 3.23 µM | LOX IMVI 2.86 µM | SF-539 1.81 µM | HCT-116 8.77 µM | NCI/ADR-RES 16.7 µM

CO/N=C\c1cc(O)c(O)c(/C=N/OC)c1
inactive: T47D 26.1 µM | A498 49.1 µM | NCI-H23 26.9 µM | MCF7 29.3 µM | U-251 34.1 µM | HOP-92 61.1 µM | COLO 205 37.9 µM | HL-60 3.48 µM | SK-MEL-2 > 100 µM | SF-268 10.9 µM | MDA-N 64.4 µM | MDA-MB-231 36.1 µM | OVCAR-8 23.4 µM | KM12 38.8 µM | LOX IMVI 41.3 µM | SF-539 27 µM | HCT-116 23.8 µM | NCI/ADR-RES 30.6 µM

CCOP(=O)(OCC)C(Cc1ccc(Cl)cc1)NS(=O)(=O)c1ccc(C)cc1 (stereo not drawn)
inactive: T47D > 100 µM | A498 > 100 µM | NCI-H23 > 100 µM | MCF7 > 100 µM | U-251 > 100 µM | HOP-92 > 100 µM | 786-0 > 100 µM | COLO 205 > 100 µM | HL-60 > 100 µM | SK-MEL-2 > 100 µM | SF-268 > 100 µM | MDA-N > 100 µM | MDA-MB-231 > 100 µM | OVCAR-8 > 100 µM | KM12 > 100 µM | LOX IMVI > 100 µM | SF-539 > 100 µM | NCI/ADR-RES > 100 µM

O=S(=O)(O)c1cc(O)c2c(O)c(/N=N/c3cccc4ccccc34)c(S(=O)(=O)O)cc2c1
inactive: T47D > 100 µM | A498 > 100 µM | NCI-H23 > 100 µM | MCF7 > 100 µM | U-251 > 100 µM | HOP-92 > 100 µM | 786-0 > 100 µM | COLO 205 > 100 µM | SK-MEL-2 > 100 µM | SF-268 > 100 µM | MDA-N > 100 µM | MDA-MB-231 > 100 µM | OVCAR-8 > 100 µM | KM12 > 100 µM | LOX IMVI > 100 µM | SF-539 > 100 µM | HCT-116 > 100 µM | NCI/ADR-RES > 100 µM

CCCCCc1c(CCCC)c(O)nc2nc(NC(=O)CCCC)ccc12
inactive: T47D > 100 µM | A498 > 100 µM | NCI-H23 > 100 µM | MCF7 > 100 µM | U-251 > 100 µM | HOP-92 > 100 µM | 786-0 > 100 µM | COLO 205 > 100 µM | SK-MEL-2 > 100 µM | SF-268 > 100 µM | MDA-N > 100 µM | MDA-MB-231 > 100 µM | OVCAR-8 > 100 µM | KM12 > 100 µM | LOX IMVI > 100 µM | SF-539 > 100 µM | HCT-116 > 100 µM | NCI/ADR-RES > 100 µM

Nc1ccccc1C#CC(=O)c1cccc(C(F)(F)F)c1
inactive: T47D 4.03 µM | A498 18.5 µM | NCI-H23 1.97 µM | MCF7 2.89 µM | U-251 1.95 µM | HOP-92 1.99 µM | 786-0 2.1 µM | COLO 205 1.89 µM | HL-60 6.07 µM | SK-MEL-2 1.18 µM | SF-268 2.2 µM | MDA-N 3.1 µM | MDA-MB-231 1.95 µM | KM12 13.9 µM | LOX IMVI 1.46 µM | SF-539 3.18 µM | HCT-116 2.66 µM | NCI/ADR-RES 4.89 µM

O=C1/C(=C/c2ccccc2S)N=C(c2ccccc2)N1c1nc2c(Cl)cc(Cl)cc2s1
inactive: T47D 31.7 µM | A498 18.3 µM | MCF7 22.3 µM | U-251 23.4 µM | HOP-92 19.5 µM | 786-0 24.3 µM | COLO 205 21.7 µM | HL-60 16.4 µM | SK-MEL-2 24 µM | SF-268 36.3 µM | MDA-N 18.1 µM | MDA-MB-231 40.4 µM | OVCAR-8 22.2 µM | KM12 24.3 µM | LOX IMVI 20.4 µM | SF-539 17 µM | HCT-116 17.7 µM | NCI/ADR-RES 26.8 µM

CC(=O)NCCC1CNc2ccccc21 (stereo not drawn)
inactive: T47D > 100 µM | A498 > 100 µM | NCI-H23 > 100 µM | MCF7 > 100 µM | U-251 > 100 µM | HOP-92 > 100 µM | COLO 205 > 100 µM | HL-60 > 100 µM | SK-MEL-2 > 100 µM | SF-268 > 100 µM | MDA-N > 100 µM | MDA-MB-231 > 100 µM | OVCAR-8 > 100 µM | KM12 > 100 µM | LOX IMVI > 100 µM | SF-539 > 100 µM | HCT-116 > 100 µM | NCI/ADR-RES > 100 µM

Nc1ccc(Nc2cc(=O)[nH]c(=O)[nH]2)cc1Cl
inactive: T47D > 100 µM | A498 > 100 µM | NCI-H23 > 100 µM | MCF7 > 100 µM | U-251 > 100 µM | HOP-92 > 100 µM | 786-0 > 100 µM | COLO 205 > 100 µM | HL-60 > 100 µM | SK-MEL-2 > 100 µM | SF-268 > 100 µM | MDA-N > 100 µM | MDA-MB-231 > 100 µM | OVCAR-8 > 100 µM | LOX IMVI > 100 µM | SF-539 > 100 µM | HCT-116 > 100 µM | NCI/ADR-RES > 100 µM

Cc1cc(C)c2c(c1)C(=O)C1(C2)Cc2c(ccc(C)c2C)C1=O (stereo not drawn)
inactive: T47D > 100 µM | A498 > 100 µM | MCF7 > 100 µM | U-251 > 100 µM | HOP-92 > 100 µM | 786-0 > 100 µM | COLO 205 > 100 µM | HL-60 > 100 µM | SK-MEL-2 > 100 µM | SF-268 > 100 µM | MDA-N > 100 µM | MDA-MB-231 > 100 µM | OVCAR-8 > 100 µM | KM12 > 100 µM | LOX IMVI > 100 µM | SF-539 85.5 µM | HCT-116 > 100 µM | NCI/ADR-RES > 100 µM

O=C(O)C(F)(F)C(F)(F)C(F)(F)C(F)(F)C(=O)O
inactive: T47D > 100 µM | A498 > 100 µM | NCI-H23 > 100 µM | MCF7 > 100 µM | U-251 > 100 µM | HOP-92 > 100 µM | 786-0 > 100 µM | COLO 205 > 100 µM | HL-60 > 100 µM | SK-MEL-2 > 100 µM | SF-268 > 100 µM | MDA-N > 100 µM | MDA-MB-231 > 100 µM | OVCAR-8 > 100 µM | KM12 > 100 µM | LOX IMVI > 100 µM | HCT-116 > 100 µM | NCI/ADR-RES > 100 µM

FC(F)(F)C1(C(F)(F)F)OC(Cl)(Cl)C(Cl)(Cl)O1
inactive: T47D > 10 µM | A498 > 10 µM | NCI-H23 > 10 µM | MCF7 > 10 µM | U-251 > 10 µM | HOP-92 > 10 µM | 786-0 > 10 µM | COLO 205 > 10 µM | SK-MEL-2 > 10 µM | SF-268 > 10 µM | MDA-N > 10 µM | MDA-MB-231 > 10 µM | OVCAR-8 > 10 µM | KM12 > 10 µM | LOX IMVI > 10 µM | SF-539 > 10 µM | HCT-116 > 10 µM | NCI/ADR-RES > 10 µM

N#CC(/N=N/c1ccc(Cl)cc1)c1nc2ccccc2o1 (stereo not drawn)
inactive: T47D 7.71 µM | A498 49 µM | NCI-H23 25.6 µM | MCF7 > 100 µM | U-251 29.6 µM | HOP-92 17.7 µM | 786-0 62.2 µM | COLO 205 22.3 µM | HL-60 33.7 µM | SK-MEL-2 28.7 µM | SF-268 33.3 µM | MDA-N > 100 µM | MDA-MB-231 37 µM | OVCAR-8 88.1 µM | KM12 89.7 µM | SF-539 24.6 µM | HCT-116 56.4 µM | NCI/ADR-RES > 100 µM
